Measured values reported in the NIST ThermoML archive (doi:10.1016/j.jct.2006.09.014).
Several values for one entry are separate records, joined by “and”; a condition that tells them apart may be missing. Equal values may be shown once. ± gives the expanded uncertainty stated by the source.

Details: Liquid; for mass density: Bellows volumetry; for vapor or sublimation pressure: Closed cell (Static) method

CCCC [butane]
Details	mass density [kg/m3]
280 K, 145 kPa	594.1 ± 0.9
280 K, 168.4 kPa	594.15 ± 0.9
280 K, 191.6 kPa	594.23 ± 0.9
280 K, 215 kPa	594.24 ± 0.9
280 K, 238.3 kPa	594.32 ± 0.9
280 K, 261.7 kPa	594.34 ± 0.9
280 K, 285 kPa	594.4 ± 0.9
300 K, 271.4 kPa	571.6 ± 0.86
300 K, 294.8 kPa	571.61 ± 0.86
300 K, 318.1 kPa	571.67 ± 0.98
300 K, 341.4 kPa	571.69 ± 0.86
300 K, 364.8 kPa	571.72 ± 0.86
300 K, 388.1 kPa	571.76 ± 0.86
300 K, 411.5 kPa	571.8 ± 0.86
320 K, 469.7 kPa	547.03 ± 0.82
320 K, 493 kPa	547.12 ± 0.91
320 K, 516.3 kPa	547.15 ± 0.88
320 K, 539.6 kPa	547.22 ± 0.82
320 K, 563 kPa	547.25 ± 0.82
320 K, 586.3 kPa	547.25 ± 0.85
320 K, 609.6 kPa	547.3 ± 0.82
340 K, 763.1 kPa	520.53 ± 0.78
340 K, 786.4 kPa	520.62 ± 0.81
340 K, 809.7 kPa	520.68 ± 0.81
340 K, 833 kPa	520.72 ± 0.8
340 K, 856.3 kPa	520.82 ± 0.78
340 K, 879.7 kPa	520.9 ± 0.78
340 K, 903 kPa	520.96 ± 0.78
360 K, 1176.4 kPa	490.56 ± 0.72
360 K, 1199.7 kPa	490.68 ± 0.74
360 K, 1223 kPa	490.79 ± 0.74
360 K, 1246.3 kPa	490.91 ± 0.73
360 K, 1269.6 kPa	490.99 ± 0.73
360 K, 1292.9 kPa	491.01 ± 0.72
360 K, 1316.1 kPa	491.18 ± 0.72
380 K, 1759.6 kPa	454.68 ± 0.66
380 K, 1782.8 kPa	454.9 ± 0.66
380 K, 1806.1 kPa	455.09 ± 0.66
380 K, 1829.3 kPa	455.25 ± 0.67
380 K, 1852.5 kPa	455.46 ± 0.66
380 K, 1875.8 kPa	455.6 ± 0.66
380 K, 1899 kPa	455.78 ± 0.66
424 K, 3720.3 kPa	289.99 ± 1.1
424 K, 3720.4 kPa	289.82 ± 1.2
424 K, 3728.4 kPa	294.73 ± 1.1
424 K, 3737.3 kPa	298.52 ± 1.1

Details	mass density [kg/m3]	vapor or sublimation pressure
280 K	594.08 ± 0.95	133 ± 0.6 kPa
300 K	571.57 ± 0.91	257.5 ± 0.6 kPa
320 K	547.03 ± 0.88	456.2 ± 0.9 kPa
340 K	520.5 ± 0.83	752 ± 1.2 kPa
360 K	490.55 ± 0.78	1170.2 ± 1.8 kPa
370 K	–	1434.9 ± 2.2 kPa
380 K	454.55 ± 0.73	1739.9 ± 2.7 kPa and 1740.4 ± 2.7 kPa
390 K	–	2092.1 ± 3.3 kPa
400 K	–	2495.2 ± 3.9 kPa and 2494.6 ± 3.9 kPa
410 K	–	2955 ± 4.6 kPa
420 K	–	3482.5 ± 5.4 kPa
422 K	–	3597.5 ± 5.6 kPa
424 K	288.22 ± 1.7	3716.9 ± 5.8 kPa
